# Patent US10590440B2, “Process for producing a fermentation product from a lignocellulose-containing material” (CysBio ApS, priority 2014, dated 2020)
# Key:
# Assay type in all cases: cell-based, Escherichia coli
# [1] = test system: E. coli BL21(DE3)pLysS carrying SULT1A1; experiment: Cell density of E. coli in media with ferulic acid, strain carrying SULT1A1 Homo sapiens (Example 4); conditions: after 17 h at 37° C., inoculated at OD600 0.002
# Excerpt: SULT1A1 from Homo sapiens (SEQ ID NO: 2) mentioned in example 1 was cloned into the plasmid vector pET-28a(+) (Novagen, Life Technologies) as follows: The gene encoding the SULT1A1 was codon optimized for expression in E. coli by GeneArt (LifeTechnologies) and synthesized such that the start codon is an Ncol restriction site. The stop codon is immediately followed by a SalI site. The Ncol and SalI fragment of this DNA piece was cloned into the pET-28a(+) digested with Ncol and SalI using T4 DNA ligase. The resulting plasmid was transformed into E. coli BL21(DE3)pLysS (Life Technologies) selecting for resistance to […] kanamycin.
# (§1) The two strains BL21(DE3)pLysS and the strain carrying SULT1A1 were grown in M9 minimal media with 0.2% glucose, appropriate antibiotics for maintenance of the plasmids, and 0.1 mM IPTG for induction of expression of the sulfotransferase. We added ferulic acid to final concentration of either 2.5 mM or 5 mM (ferulic acid was dissolved in ethanol, which reached a final concentration of 2% in the media). Ferulic acid is a growth inhibitory compound found in lignocellulotic biomass hydrolysate. Cells were inoculated into the medium to an optical density at 600 nm (OD600) of 0.002 in a 1 cm light path. […] Presence of an aryl sulfotransferase removes the inhibition caused by ferulic acid.
# [2] = test system: E. coli BL21(DE3)pLysS; experiment: Cell density of E. coli in media with ferulic acid, strain without SULT1A1 (Example 4); conditions: after 17 h at 37° C., inoculated at OD600 0.002
# Procedure: as §1
# [3] = test system: E. coli MG1655; experiment: Toxicity of unsulfated or sulfated product: growth rate of E. coli MG1655 (Example 3, FIG. 5); conditions: M9 0.2% glucose, pH 7, 37° C.; pHCA 10-40 mM, zosteric acid 20 or 40 mM
# Excerpt: All media preparations had been adjusted to pH 7. […] Filled squares represent growth rates in media with pHCA.
Compound,Optical density at 600 nm ([1]; 2.5 mM ferulic acid),Optical density at 600 nm ([1]; 5 mM ferulic acid),Optical density at 600 nm ([2]; 2.5 mM ferulic acid),Optical density at 600 nm ([2]; 5 mM ferulic acid),Toxicity to the cells (growth rates in exponential growth phase) [3]
COc1cc(/C=C/C(=O)O)ccc1O [ferulic acid],1.410,1.340,0.680,0.370,
"O=C(O)/C=C/c1ccc(O)cc1 [pHCA, p-coumaric acid]",,,,,toxic to the cells
O=C(O)/C=C/c1ccc(OS(=O)(=O)O)cc1 [zosteric acid],,,,,much less so
